Assay results reported in ChEMBL document CHEMBL3639007, “Cyclohexyl amide derivatives as CRF receptor antagonists” (2014).
Where “and” joins values, the source holds several entries; their conditions need not be identical. Equal entries are not always repeated.

Target: T1, Corticotropin-releasing factor receptor 2 (Homo sapiens, UniProt Q13324)
T1 sequence (Q13324 whole entry): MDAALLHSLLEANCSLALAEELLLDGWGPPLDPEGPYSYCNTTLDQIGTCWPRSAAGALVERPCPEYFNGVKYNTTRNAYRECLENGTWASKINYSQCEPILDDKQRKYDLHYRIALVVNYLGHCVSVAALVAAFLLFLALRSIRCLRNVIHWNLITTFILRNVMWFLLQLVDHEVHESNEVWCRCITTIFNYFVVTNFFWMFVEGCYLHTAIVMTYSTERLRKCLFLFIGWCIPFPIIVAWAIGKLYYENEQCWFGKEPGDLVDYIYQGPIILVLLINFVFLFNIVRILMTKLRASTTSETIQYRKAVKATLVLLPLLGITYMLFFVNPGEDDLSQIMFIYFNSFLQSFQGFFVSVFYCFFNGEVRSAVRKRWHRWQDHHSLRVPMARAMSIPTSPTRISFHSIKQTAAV
Test: (§1) Homogeneous Time-Resolved Fluorescence Assay: Chinese hamster ovary (CHO) cells expressing either the human or rat recombinant CRF-1 or human CRF-2alpha (Chen et al, Proc Natl Acad Sci USA 90, 8967-8971, 1993; Liaw et al, Endocrinology 137, 72-77, 1996) are propagated in Dulbecco's modified Eagle medium supplemented with 10% foetal calf serum, non-essential amino acids, 100 U/ml penicillin, 100 mg/l streptomycin and 1 g/l geneticin. CHO cells expressing the rat CRF-2beta receptor (Wu et al, Endocrinology 148, 1675-1687, 2007) are propagated in HAM's-F12 Glutamax supplemented with 10% foetal calf serum, 100 IU/ml penicillin, 100 mg/l streptomycin, 600 ug/ml hygromycin, 10 ug/ml blasticidin and induced with 1 ug/ml of tetracyclin for 24 hours prior to experimentation. For cyclic AMP determinations the Homogeneous Time-Resolved Fluoresce (HTRF) CAMP dynamic 2 kit (Cisbio International, France) was used as per manufacturers' instructions.
Type: cell-based

SMILES	IC50 [nM]
CCc1[nH]nc(NC[C@H]2CC[C@H](NC(=O)c3cc(Cl)cnc3C)CC2)c1C	4880
Cc1ncc(Cl)cc1C(=O)N[C@H]1CC[C@@H](Cn2nc(-c3ccccc3)cc2C)CC1	4940
Cc1ncc(Cl)cc1C(=O)N[C@H]1CC[C@@H](Cn2nc(-c3ccc(F)cc3)cc2C)CC1	4630
Cc1ncc(Cl)cc1C(=O)N[C@H]1CC[C@H](Cn2nc(-c3cccnc3)cc2C)CC1	3740

Continued, values first:

IC50 [nM]	SMILES
4850	O=C(N[C@H]1CC[C@H](Cn2cc(Cl)c(CO)n2)CC1)c1cc(C(F)(F)F)ccc1Cl
2030	CCc1cc(C)n(C[C@H]2CC[C@H](NC(=O)c3cc(C(F)(F)F)ccc3Cl)CC2)n1

Target: T2, Corticotropin-releasing factor receptor 1 (Homo sapiens, UniProt P34998)
T2 sequence (P34998 whole entry): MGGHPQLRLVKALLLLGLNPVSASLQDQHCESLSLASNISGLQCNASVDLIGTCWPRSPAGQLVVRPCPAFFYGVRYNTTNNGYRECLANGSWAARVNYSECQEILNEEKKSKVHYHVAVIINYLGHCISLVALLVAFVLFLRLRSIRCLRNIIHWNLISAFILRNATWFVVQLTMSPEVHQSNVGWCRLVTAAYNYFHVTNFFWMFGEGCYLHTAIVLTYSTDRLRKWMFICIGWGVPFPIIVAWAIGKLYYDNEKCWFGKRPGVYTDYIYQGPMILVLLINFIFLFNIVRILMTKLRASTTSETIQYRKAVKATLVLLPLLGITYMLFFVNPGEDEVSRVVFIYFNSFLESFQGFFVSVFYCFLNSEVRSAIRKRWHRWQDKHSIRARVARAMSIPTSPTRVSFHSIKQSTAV
Test: as §1
Type: cell-based

SMILES	IC50
Cc1ncc(Cl)cc1C(=O)N[C@H]1CC[C@H](Cn2nc(C)c(Cl)c2C)CC1	256 nM
Cc1cc(C)n(C[C@H]2CC[C@H](NC(=O)c3cc(Cl)cnc3C)CC2)n1	88 nM and 262 nM
CCc1[nH]nc(NC[C@H]2CC[C@H](NC(=O)c3cc(Cl)cnc3C)CC2)c1C	134 nM
COc1ccc(-c2c(NC[C@H]3CC[C@H](NC(=O)c4cc(C(F)(F)F)ccc4Cl)CC3)n[nH]c2C)c(Cl)c1	35 nM
CCc1cc(CC)n(C[C@H]2CC[C@H](NC(=O)c3cc(Cl)cnc3C)CC2)n1	160 nM
Cc1ncc(Cl)cc1C(=O)N[C@H]1CC[C@H](Cn2cc3c(n2)CCCC3)CC1	318 nM
Cc1ncc(Cl)cc1C(=O)N[C@H]1CC[C@@H](Cn2nc(-c3ccc(F)cc3)cc2C)CC1	180 nM
Cc1ncc(Cl)cc1C(=O)N[C@H]1CC[C@H](Cn2nc(-c3cccnc3)cc2C)CC1	142 nM
Cc1cc(C)n(C[C@H]2CC[C@H](NC(=O)c3cc(C(F)(F)F)cnc3C)CC2)n1	634 nM
COc1ccc(-c2cc(C)n(C[C@H]3CC[C@H](NC(=O)c4cc(C(F)(F)F)ccc4Cl)CC3)n2)cc1	82 nM
Cc1cc(-c2ccc3c(c2)OCO3)nn1C[C@H]1CC[C@H](NC(=O)c2cc(C(F)(F)F)ccc2Cl)CC1	59 nM
Cc1cc(CO)n(C[C@H]2CC[C@H](NC(=O)c3cc(Cl)cnc3C)CC2)n1	6960 nM
Cc1ncc(Cl)cc1C(=O)N[C@H]1CC[C@H](Cn2nc(CO)cc2C)CC1	665 nM

Next, values leading:

IC50	SMILES
167 nM	Cc1cn(C[C@H]2CC[C@H](NC(=O)c3cc(C(F)(F)F)ccc3Cl)CC2)nc1C
170 nM	O=C(N[C@H]1CC[C@H](Cn2ncc3c2CCC3)CC1)c1cc(C(F)(F)F)ccc1Cl
21 nM	CCc1cc(CC)n(C[C@H]2CC[C@H](NC(=O)c3cc(C(F)(F)F)ccc3Cl)CC2)n1
67 nM	COc1cc(C)nn1C[C@H]1CC[C@H](NC(=O)c2cc(C(F)(F)F)ccc2Cl)CC1
132 nM	Cc1cnn(C[C@H]2CC[C@H](NC(=O)c3cc(C(F)(F)F)ccc3Cl)CC2)c1
95 nM	O=C(N[C@H]1CC[C@H](Cn2cc(Cl)c(CO)n2)CC1)c1cc(C(F)(F)F)ccc1Cl
22 nM	CCc1cc(C)nn1C[C@H]1CC[C@H](NC(=O)c2cc(C(F)(F)F)ccc2Cl)CC1
